From PubChem BioAssay AID624369 (Broad Institute, 2012)
Records with an inconclusive call do not appear. Active and inactive are the calls of the source.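 Rule for the calls: active = fitted curve crosses a set inhibition level at a dose up to twice the top tested dose; inconclusive = flat curve with moderate inhibition, or an unreliable curve fit; inactive = the rest, including signal rising instead of falling.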

Assay: TNFa-induced NF-kB reporter signal decrease – HEK293 LMP1 reporter cells, dry powder, set 2, selectivity assay for EBV LMP1 NF-kB inhibitor project, dose response (AID 624369)
Conditions: HEK293 LMP1 TES2 NF-kB luciferase reporter, 16 h; at 16 µM (top of the series)
With C[C@@H]1CN([C@H](C)CO)C(=O)Cc2cc(NC(=O)Cc3ccccc3)ccc2O[C@@H]1CN(C)Cc1ccc(C(F)(F)F)cc1 the activity change, negative = inhibition was 23.7% (inactive).

Same assay, conditions: HEK293 LMP1 TES2 NF-kB luciferase reporter, 16 h; at 30 µM (top of the series)
For Cc1noc(C)c1S(=O)(=O)Nc1ccc2c(c1)C(=O)N([C@@H](C)CO)C[C@H](C)[C@H](CN(C)Cc1ccc(C(F)(F)F)cc1)OCCCC[C@@H](C)O2, the activity change, negative = inhibition was 83.8% (inactive).
With C[C@H](NC(=O)C[C@@H]1C=C[C@H](NC(=O)Cc2ccccn2)[C@H](CO)O1)c1ccccc1 the activity change, negative = inhibition was -0.606% (inactive).

Same assay, conditions: HEK293 LMP1 TES2 NF-kB luciferase reporter, 16 h; at 35 µM (top of the series)
With O=C(Cc1ccccn1)NCC[C@@H]1CC[C@H](NC(=O)Nc2ccc(Cl)cc2)[C@@H](CO)O1 the activity change, negative = inhibition was 0.116% (inactive).
With O=C(Cc1ccccn1)NCC[C@@H]1CC[C@@H](NC(=O)Nc2ccc(Cl)cc2)[C@H](CO)O1 the activity change, negative = inhibition was 1.95% (inactive).
For C[C@@H](NC(=O)C[C@H]1C=C[C@H](NC(=O)Cc2ccccn2)[C@@H](CO)O1)c1ccccc1, the activity change, negative = inhibition was 0.235% (inactive).
In the case of O=C(Cc1ccccn1)NCC[C@@H]1CC[C@@H](NC(=O)Nc2ccc(Cl)cc2)[C@@H](CO)O1, the activity change, negative = inhibition is reported as 2.08% (inactive).
With COc1cccc(S(=O)(=O)N(C)C[C@H]2Oc3cc(C4=CCCCC4)ccc3S(=O)(=O)N([C@H](C)CO)C[C@H]2C)c1 the activity change, negative = inhibition was 26.9% (inactive).
For C[C@@H](NC(=O)C[C@H]1C=C[C@@H](NC(=O)Cc2ccccn2)[C@@H](CO)O1)c1ccccc1, the activity change, negative = inhibition was -2.43% (inactive).
With Cc1noc(C)c1S(=O)(=O)Nc1ccc2c(c1)C(=O)N([C@H](C)CO)C[C@H](C)[C@H](CN(C)Cc1ccc(C(F)(F)F)cc1)OCCCC[C@@H](C)O2 the activity change, negative = inhibition was 62.1% (inactive).
In the case of CO[C@@H]1CN(C)C(=O)c2ccc(NC(C)=O)cc2OC[C@@H](C)N(Cc2ccccc2F)C[C@H]1C, the activity change, negative = inhibition is reported as 3.06% (inactive).
For C[C@H](NC(=O)C[C@@H]1C=C[C@@H](NC(=O)Cc2ccccn2)[C@@H](CO)O1)c1ccccc1, the activity change, negative = inhibition was -1.02% (inactive).
In the case of C[C@H](CO)N1C[C@H](C)[C@H](CN(C)C(=O)NC2CCCCC2)Oc2cc(/C=C/c3ccccc3)ccc2S1(=O)=O, the activity change, negative = inhibition is reported as -10.3% (inactive).
For C[C@H](NC(=O)C[C@H]1C[C@@H]2c3cc(NC(=O)c4cccnc4)ccc3O[C@@H]2[C@@H](CO)O1)c1ccccc1, the activity change, negative = inhibition was -8.72% (inactive).
For CO[C@H]1CN(C)C(=O)c2ccc(NC(=O)C3CC3)cc2OC[C@H](C)N(C(=O)c2ccccn2)C[C@H]1C, the activity change, negative = inhibition was -5.44% (inactive).
With O=C(Cc1ccccn1)NCC[C@H]1CC[C@H](NC(=O)Nc2ccc(Cl)cc2)[C@@H](CO)O1 the activity change, negative = inhibition was -0.241% (inactive).
For C[C@@H]1CN([C@@H](C)CO)C(=O)Cc2cc(NC(=O)Cc3ccccc3)ccc2O[C@H]1CN(C)Cc1ccc(C(F)(F)F)cc1, the activity change, negative = inhibition was 29.3% (inactive).
For COc1cccc(S(=O)(=O)N(C)C[C@@H]2Oc3cc(C4=CCCCC4)ccc3S(=O)(=O)N([C@@H](C)CO)C[C@H]2C)c1, the activity change, negative = inhibition was -6.23% (inactive).
In the case of O=C(C[C@@H]1C[C@@H]2c3cc(NS(=O)(=O)c4ccc(F)cc4)ccc3O[C@@H]2[C@H](CO)O1)NC1CCCCC1, the activity change, negative = inhibition is reported as 12.6% (inactive).
With CS(=O)(=O)Nc1ccc2c(c1)[C@H]1C[C@@H](CC(=O)NCC3CC3)O[C@@H](CO)[C@H]1O2 the activity change, negative = inhibition was -2.86% (inactive).
In the case of C[C@H]1CN([C@@H](C)CO)C(=O)Cc2cc(NC(=O)Cc3ccccc3)ccc2O[C@@H]1CN(C)Cc1ccc(C(F)(F)F)cc1, the activity change, negative = inhibition is reported as 13.6% (inactive).
For C[C@@H]1CN([C@@H](C)CO)C(=O)Cc2cc(NC(=O)Cc3ccccc3)ccc2O[C@@H]1CN(C)Cc1ccc(C(F)(F)F)cc1, the activity change, negative = inhibition was 26.6% (inactive).
With Cc1noc(C)c1S(=O)(=O)Nc1ccc2c(c1)C(=O)N([C@@H](C)CO)C[C@H](C)[C@@H](CN(C)Cc1ccc(C(F)(F)F)cc1)OCCCC[C@@H](C)O2 the activity change, negative = inhibition was -1.88% (inactive).
For COc1ccccc1C(=O)Nc1ccc2c(c1)C(=O)N(C)[C@@H]1CC[C@H](CC(=O)NCCc3ccncc3)O[C@H]1CO2, the activity change, negative = inhibition was -5.47% (inactive).
With COc1ccc(NC(=O)N(C)C[C@@H]2Oc3cc(C#CCC(C)C)ccc3S(=O)(=O)N([C@@H](C)CO)C[C@@H]2C)cc1 the activity change, negative = inhibition was 14.6% (inactive).
In the case of COc1cccc(S(=O)(=O)N(C)C[C@@H]2Oc3cc(C4=CCCCC4)ccc3S(=O)(=O)N([C@@H](C)CO)C[C@@H]2C)c1, the activity change, negative = inhibition is reported as 17.7% (inactive).
In the case of C[C@@H]1CN([C@H](C)CO)C(=O)c2c(c3ccccc3n2C)-c2ccccc2CO[C@@H]1CN(C)C(=O)Nc1ccc(F)cc1, the activity change, negative = inhibition is reported as -1.47% (inactive).
With O=C(Nc1ccc(C(F)(F)F)cc1)Nc1ccc2c(c1)[C@H]1C[C@@H](CC(=O)N3CCc4ccccc4C3)O[C@@H](CO)[C@H]1O2 the activity change, negative = inhibition was 0.365% (inactive).
With C[C@H](CO)N1C[C@H](C)[C@@H](CN(C)S(=O)(=O)c2cccc(F)c2)Oc2ncc(C#CC3CCCCC3)cc2C1=O the activity change, negative = inhibition was 1.93% (inactive).
In the case of C[C@@H]1CN([C@@H](C)CO)C(=O)c2c(c3ccccc3n2C)-c2ccccc2CO[C@@H]1CN(C)C(=O)Nc1ccc(F)cc1, the activity change, negative = inhibition is reported as 3.56% (inactive).
